This is an account of results in US4131686A, “Novel benzylalcohol derivatives and processes for preparing the same” (Tanabe Seiyaku Co., Ltd., priority 1975, dated 1978).

Data set [1] in a line: acute toxicity: 50% lethal dose (LD50) by oral administration to mice. Particulars: mouse, in vivo.
A further data set concerns blood sugar. The experiment in a line: blood sugar-lowering test: oral administration to mice prior to subcutaneous injection of glucose (one g/kg). Format: in vivo. Particulars: 100 mg/kg required; same conditions (mice, oral, s.c. glucose one g/kg).
A further data set relates to blood-pressure. Particulars: known cardiotonic compounds, U.S. Pat. 3869474 and Offenlegungsschrift 2420427; cited from earlier work.
The subject of the next data set is adrenergic β1 -receptor. Particulars: known compounds, U.S. Pat. 3869474 and Offenlegungsschrift 2420427; cited from earlier work.

A word on the LD50: it is the dose expected to kill half of the subjects tested. High values mean a less toxic substance, low ones a more toxic substance. Molecule `COc1ccc(CCNCC(O)c2ccccc2OC)cc1OC` (racemic) [dl-α-(3,4-dimethoxyphenethylaminomethyl)-2-methoxybenzylalcohol] came in with an LD50 in data set [1] of about 580 mg/kg.
For `N=C(N)NC(=N)NCCc1ccccc1` [Phenformin, 1-phenethylbiguanide], the “decrease in the blood sugar” value in the data set with blood sugar is on record as about 30%.
Take `COc1cc(CCNCC(O)c2ccc(O)c(O)c2)cc(OC)c1OC` (stereo not drawn) [α-(3,4,5-trimethoxyphenethylaminomethyl)-3,4-dihydroxybenzylalcohol]: the influence upon blood-pressure entry in the data set on blood-pressure was “no substantial influence”. Besides, the “activation of adrenergic β1-receptor” value in the data set on adrenergic β1 -receptor was “selective activation”.
Turning to `COc1ccc(CCNCC(O)c2ccc(O)c(O)c2)cc1OC` (stereo not drawn) [α-(3,4-dimethoxyphenethylaminomethyl)-3,4-dihydroxybenzylalcohol], the influence upon blood-pressure result in the data set with blood-pressure is recorded as “no substantial influence”. In addition, the “activation of adrenergic β1-receptor” value with adrenergic β1 -receptor was “selective activation”.
